In BindingDB's records for doi:10.7270/Q24748BK (Burnham Center For Chemical Genomics, 2010):

Target: T1, Tyrosine-protein phosphatase non-receptor type 22 (Homo sapiens, UniProt Q9Y2R2)
T1 sequence (Q9Y2R2 whole entry): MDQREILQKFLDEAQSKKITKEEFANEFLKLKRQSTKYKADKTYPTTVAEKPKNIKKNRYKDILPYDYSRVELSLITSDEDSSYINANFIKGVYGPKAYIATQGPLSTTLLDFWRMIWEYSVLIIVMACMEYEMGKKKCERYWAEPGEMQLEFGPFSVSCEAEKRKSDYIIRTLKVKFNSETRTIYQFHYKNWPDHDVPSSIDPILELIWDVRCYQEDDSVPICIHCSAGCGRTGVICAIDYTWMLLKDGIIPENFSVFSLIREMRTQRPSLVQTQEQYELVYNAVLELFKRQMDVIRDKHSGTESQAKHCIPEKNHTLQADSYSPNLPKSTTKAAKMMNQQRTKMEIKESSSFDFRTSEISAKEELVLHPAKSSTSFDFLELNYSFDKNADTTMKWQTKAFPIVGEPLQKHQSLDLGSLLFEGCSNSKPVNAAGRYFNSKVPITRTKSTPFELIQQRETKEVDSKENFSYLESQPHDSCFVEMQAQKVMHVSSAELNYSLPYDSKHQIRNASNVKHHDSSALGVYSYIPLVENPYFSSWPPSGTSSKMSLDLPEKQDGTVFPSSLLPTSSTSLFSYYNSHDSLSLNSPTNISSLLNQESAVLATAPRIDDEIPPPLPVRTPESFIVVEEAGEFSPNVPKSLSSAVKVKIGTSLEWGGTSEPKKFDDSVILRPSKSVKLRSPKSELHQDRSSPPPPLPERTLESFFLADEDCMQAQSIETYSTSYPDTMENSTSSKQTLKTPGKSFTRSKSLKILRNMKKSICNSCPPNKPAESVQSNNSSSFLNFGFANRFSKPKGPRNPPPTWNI
Test: LYP phosphatase inhibitor potency, dose response, biochemical, pCAP substrate, fluorescence intensity (AID 435027)

| Structure (SMILES) | IC50 [µM] |
| --- | --- |
| N=C(NN=Cc1ccc2c(c1)OCO2)Sc1cc(O)n(-c2ccc(C(=O)O)cc2)c1O [4-(3-{[[(2E)-2-(1,3-benzodioxol-5-ylmethylene)hydrazino](imino)methyl]thio}-2,5-dioxopyrrolidin-1-yl)benzoic acid] | 7.65 |
| Cc1ccc(NN=C2C(=O)N(CN3CCOCC3)c3ccccc32)cc1 [(3Z)-3-[(4-methylphenyl)hydrazinylidene]-1-(4-morpholinylmethyl)-2-indolone] | > 79.4 |
| CCOC(=O)NC(=O)C(C=Nc1ccc(C)cc1)C(=O)NC(=O)OCC [ethyl 2-{[(ethoxycarbonyl)amino]carbonyl}-3-(4-toluidino)acryloylcarbamate] | > 79.4 |

Results, then the compound that gave them:

| IC50 [µM] | Structure (SMILES) |
| --- | --- |
| > 79.4 | O=C1C([N+](=O)[O-])=CC(Br)=CC1/C=N/n1cnnc1 (stereo not given) [MLS000714804] |
| 15.7 | COC1=CC=CC(/C=N/NC(=O)c2cc3cc([N+](=O)[O-])ccc3s2)C1=O (stereo not given) [SMR000237814] |
